pIC50: −log10 of the molar value.

This assay has as its target T1, human liver FBPase (Homo sapiens, UniProt P09467).
T1 construct: made in house; host or cells: E. coli
T1 sequence (P09467 2-338 limits assumed): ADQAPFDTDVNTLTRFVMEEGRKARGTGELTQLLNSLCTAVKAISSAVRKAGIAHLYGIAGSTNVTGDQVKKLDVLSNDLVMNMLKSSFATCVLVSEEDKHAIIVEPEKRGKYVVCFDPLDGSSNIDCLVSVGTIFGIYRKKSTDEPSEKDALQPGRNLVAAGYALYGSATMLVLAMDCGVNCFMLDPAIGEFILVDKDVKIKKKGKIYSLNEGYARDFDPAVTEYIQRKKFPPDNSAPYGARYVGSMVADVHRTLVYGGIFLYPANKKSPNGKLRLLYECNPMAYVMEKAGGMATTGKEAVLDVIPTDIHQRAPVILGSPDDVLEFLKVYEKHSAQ
Nature of the assay: FBPase assay (malachite green phosphate release). In kind it is biochemical. The settings on record: recombinant human liver FBPase, 50 μM fructose-1,6-bisphosphate. An outline of the steps:
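Recombinant human liver FBPase (E. coli-expressed, heat-treated, purified) reacted with 50 μM fructose-1,6-bisphosphate in pH 7.2 HEPES, 2 mM MgCl2, 1% DMSO, 50 min at room temperature. Released phosphate quantified with malachite green/ammonium molybdate reagent at 620 nm.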
In the case of `CNC(=O)Nc1cc(OC)cc(NC(=O)NS(=O)(=O)c2cn(C)c3c(OCC(=O)N(C)C)cccc23)n1` [Compound 70, 2-[(3-{[({4-Methoxy-6-[(methylcarbamoyl)amino]pyridin-2-yl}carbamoyl)amino]sulfonyl}-1-methyl-1H-indol-7-yl)oxy]-N,N-dimethylacetamide], the pIC50 was 5.46.

With `COCCc1sc(S(=O)(=O)NC(=O)Nc2cc(SC)cc(O)n2)cc1C` [Compound 71, N-{[6-Hydroxy-4-(methylthio)pyridin-2-yl]carbamoyl}-5-(2-methoxyethyl)-4-methylthiophene-2-sulfonamide], the pIC50 was 5.39.

On to `Cc1cccc(S(=O)(=O)NC(=O)Nc2cccc(Cl)n2)c1` [Compound 72, N-[(6-Chloropyridin-2-yl)carbamoyl]-3-methylbenzenesulfonamide], for which the pIC50 was 5.34.

As to `COCCc1sc(S(=O)(=O)NC(=O)Nc2cc(SC)cc(NCCCC(=O)OC)n2)cc1C` [Compound 73, Methyl-4-({6-[({[5-(2-methoxyethyl)-4-methyl-2-thienyl]sulfonyl}carbamoyl)amino]-4-(methylthio)pyridin-2-yl}amino)butanoate], the pIC50 is 5.76.

For the molecule `COCCc1sc(S(=O)(=O)NC(=O)Nc2cc(SC)cc(NCCCO)n2)cc1C` [Compound 74, N-({6-[(3-Hydroxypropyl)amino]-4-(methylthio)pyridin-2-yl}carbamoyl)-5-(2-methoxyethyl)-4-methylthiophene-2-sulfonamide], the pIC50 was 5.65.

With `COCCc1sc(S(=O)(=O)NC(=O)Nc2cc(SC)cc(NCCC(F)(F)F)n2)cc1C` [Compound 75, 5-(2-Methoxyethyl)-4-methyl-N-({4-(methylthio)-6-[(3,3,3-trifluoropropyl)amino]pyridin-2-yl}carbamoyl)thiophene-2-sulfonamide], the pIC50 is 5.77.

As to `CC(=O)OCCc1sc(S(=O)(=O)NC(=O)Nc2cc(C(F)(F)F)ccn2)cc1C` [Compound 77, 2-{3-Methyl-5-[({[4-(trifluoromethyl)pyridin-2-yl]carbamoyl}amino)sulfonyl]-2-thienyl}ethyl acetate], the negative-log IC50 (pIC50) was 6.09.

For `Cc1cc(S(=O)(=O)NC(=O)Nc2cc(C(F)(F)F)ccn2)sc1CCO` [Compound 78, 5-(2-Hydroxyethyl)-4-methyl-N-{[4-(trifluoromethyl)pyridin-2-yl]carbamoyl}thiophene-2-sulfonamide], the pIC50 was 6.04.

Turning to `COCCc1sc(S(=O)(=O)NC(=O)Nc2cc(C(F)(F)F)c(F)c(N)n2)cc1C` [Compound 79, N-{[6-Amino-5-fluoro-4-(trifluoromethyl)pyridin-2-yl]carbamoyl}-5-(2-methoxyethyl)-4-methylthiophene-2-sulfonamide], the pIC50 is 6.25.

Regarding `C=C(C)CNc1cc(SC)cc(NC(=O)NS(=O)(=O)c2cc(C)c(CCOC)s2)n1` [Compound 80, 5-(2-Methoxyethyl)-4-methyl-N-({6-[(2-methylprop-2-en-1-yl)amino]-4-(methylthio)pyridin-2-yl}carbamoyl)thiophene-2-sulfonamide], the pIC50 is 5.79.

For `CC(=O)OCCc1sc(S(=O)(=O)NC(=O)Nc2cc(C(F)(F)F)c(F)c(N)n2)cc1C` [Compound 81, 2-{5-[({[6-Amino-5-fluoro-4-(trifluoromethyl)pyridin-2-yl]carbamoyl}amino)sulfonyl]-3-methyl-2-thienyl}ethyl acetate], the negative-log IC50 (pIC50) was 6.18.

Turning to `Nc1cc(Br)cc(NC(=O)NS(=O)(=O)c2coc3ccccc23)n1` [Compound 82, N-[(6-Amino-4-bromopyridin-2-yl)carbamoyl]-1-benzofuran-3-sulfonamide], the pIC50 was 5.73.

Consider `Nc1cc(Br)cc(NC(=O)NS(=O)(=O)c2coc3ccc(Br)cc23)n1` [Compound 83, N-[(6-Amino-4-bromopyridin-2-yl)carbamoyl]-5-bromo-1-benzofuran-3-sulfonamide], for which the pIC50 is 5.28.

On to `Cc1cc(S(=O)(=O)NC(=O)Nc2cc(C(F)(F)F)c(F)c(N)n2)sc1CCO` [Compound 84, N-{[6-Amino-5-fluoro-4-(trifluoromethyl)pyridin-2-yl]carbamoyl}-5-(2-hydroxyethyl)-4-methylthiophene-2-sulfonamide], for which the pIC50 is 6.37.

As to `COCCc1sc(S(=O)(=O)NC(=O)Nc2cc(C(F)(F)F)cc(N)n2)cc1C` [Compound 85, N-{[6-Amino-4-(trifluoromethyl)pyridin-2-yl]carbamoyl}-5-(2-methoxyethyl)-4-methylthiophene-2-sulfonamide], the pIC50 was 6.12.

In the case of `COCCc1sc(S(=O)(=O)NC(=O)Nc2cc(SC)cc(C)n2)cc1C` [Compound 86, 5-(2-Methoxyethyl)-4-methyl-N-{[6-methyl-4-(methylthio)pyridin-2-yl]carbamoyl}thiophene-2-sulfonamide], the negative logarithm of the IC50 (pIC50) was 5.75.

As to `CSc1cc(N)nc(NC(=O)NS(=O)(=O)c2coc3ccc(Br)cc23)c1` [Compound 87, N-{[6-Amino-4-(methylthio)pyridin-2-yl]carbamoyl}-5-bromo-1-benzofuran-3-sulfonamide], the pIC50 was 5.32.

Regarding `COCCc1sc(S(=O)(=O)NC(=O)Nc2cc(SC)cc(C(=O)O)n2)cc1C` [Compound 88, Sodium-6-[({[5-(2-methoxyethyl)-4-methyl-2-thienyl]sulfonyl}carbamoyl)amino]-4-(methylthio)pyridine-2-carboxylate], the negative-log IC50 (pIC50) is 4.26.

Take `CNC(=O)Nc1cc(SC)cc(NC(=O)NS(=O)(=O)c2coc3ccccc23)n1` [Compound 89, N-({6-[(Methylcarbamoyl)amino]-4-(methylthio)pyridin-2-yl}carbamoyl)-1-benzofuran-3-sulfonamide]: the pIC50 was 6.30.

For `COCCc1sc(S(=O)(=O)NC(=O)Nc2cc(C(F)(F)F)cc(Cl)n2)cc1C` [Compound 90, N-{[6-chloro-4-(trifluoromethyl)pyridin-2-yl]carbamoyl}-5-(2-methoxyethyl)-4-methylthiophene-2-sulfonamide], the pIC50 is 5.97.

In the case of `COCCc1sc(S(=O)(=O)NC(=O)Nc2cc(C(F)(F)F)cc(C(=O)OC)n2)cc1C` [Compound 91, Methyl-6-[({[5-(2-methoxyethyl)-4-methyl-2-thienyl]sulfonyl}carbamoyl)amino]-4-(trifluoromethyl)pyridine-2-carboxylate], the pIC50 is 5.67.

With `COC(=O)c1cc(C(F)(F)F)cc(NC(=O)NS(=O)(=O)c2cc(C)c(CCOC(C)=O)s2)n1` [Compound 92, Methyl-6-[({[5-(2-acetoxyethyl)-4-methyl-2-thienyl]sulfonyl}carbamoyl)amino]-4-(trifluoromethyl)pyridine-2-carboxylate], the pIC50 was 5.79.

For the molecule `CC(=O)OCCc1sc(S(=O)(=O)NC(=O)Nc2cc(C(F)(F)F)cc(Cl)n2)cc1C` [Compound 93, 2-{5-[({[6-chloro-4-(trifluoromethyl)pyridin-2-yl]carbamoyl}amino)sulfonyl]-3-methyl-2-thienyl}ethyl acetate], the pIC50 is 6.07.

`CNC(=O)Nc1cc([S+](C)[O-])cc(NC(=O)NS(=O)(=O)c2cc(C)c(CCOC)s2)n1` (stereo not drawn) [Compound 94, 5-(2-Methoxyethyl)-4-methyl-N-({6-[(methylcarbamoyl)amino]-4-(methylsulfinyl)pyridin-2-yl}carbamoyl)thiophene-2-sulfonamide]: the pIC50 is 5.80.
